Laboratory results reported in patent US12042481B2, “Use of (1R,5S)-(+)-1-(naphthalen-2-yl)-3-azabicyclo[3.1.0]hexane in the treatment of conditions affected by monoamine neurotransmitters” (priority 2011, dated 2024).
Entries after “also recorded” stand apart in the source; their conditions may differ.

Experiments:
[1] = molecular target: T1, recombinant human NE transporter (Homo sapiens, UniProt P23975); assay: Inhibition of [3H]norepinephrine uptake in MDCK cells transfected with the NE uptake transporter; format: cell-based
T1 construct: host or cells: MDCK
Description: The ability of (1R,5S)-(+)-1-(naphthalen-2-yl)-3-azabicyclo[3.1.0]hexane for inhibiting transport of norepinephrine (NE) and/or dopamine (DA) and/or serotonin (5-HT) was evaluated using cell lines (such as the HEK 293 cell line) that stably express recombinant human NE, DA, and 5-HT transporters, respectively. Techniques for stably transfecting mammalian cell lines with neurotransmitter transporters and measuring the effects of drugs on amine uptake have been described in the literature (e.g., Eshleman A J, J Pharmacol Exp Ther 289:877-885, 1999) and are well known to those skilled in the art
Monoamine uptake was determined in MDCK, CHO-K1, and HEK-293 cell lines respectively transfected with NE, DA, and 5-HT uptake transporters by MDS Pharma Services (Taipei, Taiwan 112, R. O. C.). The cells were incubated in 5 mM Tris-HCl, and 7.5 mM HEPES buffer, pH 7.1, containing 120 mM NaCl, 5.4 mM KCl, 1.2 mM CaCl2, 1.2 mM MgSO4, 5 mM D-glucose, and 1 mM Ascorbic Acid. The cellular homogenates were incubated with radioligands and various concentrations of drugs for 10 minutes at 25° C. The [^3H]-radioligands incorporated into the cells were determined according to published methods using liquid scintillation counting (Perovic and Müller 1995; Eshleman et al., 1999). […]

[2] = test system: monoamine uptake transporters; assay: Microdialysis in rat prefrontal cortex (extracellular NE, DA, 5-HT); format: in vivo
Description: To evaluate the effect of (1R,5S)-(+)-1-(naphthalen-2-yl)-3-azabicyclo[3.1.0]hexane on monoamine uptake transporters in vivo, microdialysis studies were performed in rat brain regions.
Microdialysis studies were conducted using male Wistar rats (250-300 g) bred at the Institute of Pharmacology, the Polish Academy of Sciences, Krakow, Poland. The rats (250-300 g) were housed on a 12 h/12 h light/dark cycle at a constant temperature and humidity, and were provided with food and water ad libitum. The microdialysis procedure has been previously described (Popik et al., 2006). Briefly, the rats were anaesthetized with ketamine (75 mg/kg IM) and xylazine (10 mg/kg IM), placed in a stereotaxic apparatus (David Kopf Instruments, Tujunga, CA, USA) with their skulls exposed. Small holes were drilled in the skull for insertion of the vertical microdialysis probes into the prefrontal cortex and striatum, respectively using the following coordinates: 2.9 mm anterior from the bregma, 0.8 mm lateral from the sagittal suture and −4.5 ventral from the dura surface (prefrontal cortex); 1.8 mm anterior from the bregma, 2.7 mm lateral from the sagittal suture and −7.0 mm ventral from the dura surface (striatum) (Paxinos and Watson, 1998). Microdialysis probes were constructed by inserting two fused silica tubes (30 and 35 mm long, 150 μm o.d.; Polymicro Technologies Inc., Phoenix, AZ, USA) into a microdialysis fiber (220 μm o.d.; AN69, Hospal, Bologna, Italy). The tube assembly was placed in a stainless steel cannula (22 G, 10 mm) forming the shaft of the probe. Portions of the inlet and outlet tubes were individually placed inside polyethylene PE-10 tubing and were glued for protection. The free end of the dialysis fibre was sealed, and 3 mm of the exposed length used for dialysis in prefrontal cortex and 4 mm for striatum. One day after the surgery and probe implantation, the inlet of the dialysis probes was connected to a syringe pump (BAS, IN, USA) which delivered an artificial cerebrospinal fluid (aCSF) composed of [in mM]: NaCl 145, KCl 2.7, MgCl2 1.0, CaCl2 1.2; pH=7.4 at a flow rate of 1.5 μl/min. After a two hour rinsing period to stabilize the extracellular level of neurotransmitters, 3-4 baseline samples were collected in 20 minute sampling periods. Next, (1R,5S)-(+)-1-(naphthalen-2-yl)-3-azabicyclo[3.1.0]hexane (dissolved in 0.9% saline solution) at doses of 10 or 20 mg/kg intraperioneally (i.p.) was administered to the animals at 4 ml/kg and consequent dialysate fractions were collected every 20 min for 3 hrs. At the end of the experiments the rats were sacrificed and their brains were histologically examined to validate the correct probe placement
Dopamine, and serotonin (5-HT) were analysed by HPLC with electrochemical detection. Chromatography was performed using an LC-10 AD pump (Shimadzu Europa GmbH, Warszawa, Poland), an LC-4B amperometric detector with a cross-flow detector cell (BAS, IN, USA) and BDS-Hypersil C18 analytical column (3×100 mm, 3 μm, Thermo Electron Corp., UK). The mobile phase was composed of 0.1 M monochloracetic acid adjusted to pH=3.7 with 3 M sodium hydroxide, 0.5 mM EDTA, 25 mg/L 1-octanesulfonic acid sodium salt, 5.7% methanol, and 2.5% acetonitrile. The flow rate was 0.5 ml/min, and the applied potential of a 3 mm glassy carbon electrode was +600 mV with a sensitivity of 2 nA/V. Norepinephrine was measured using HPLC system equipped with a P580 pump (Dionex, CA, USA) connected to a BAS injection valve with a 10 μI injection loop and a BDS-Hypersil analytical column (2.0×100 mm, a 3 μm, Thermo Electron Corp., UK). The mobile phase was composed of 0.05 M potassium dihydrogen phosphate (adjusted to pH=3.7 with ortho-phosphoric acid), 0.5 mM EDTA, 150 mg/L 1-octanesulfonic acid sodium salt, 10 mM NaCl, and 1.2% acetonitrile. The flow rate was 180 μl/min. NE in the dialysates was detected with a BAS UniJet radial flow detector cell coupled to a LC-4B amperometric detector (BAS, IN, USA). […]

[3] = test system: male CD-1 (Crl.) derived mice; assay: Mouse spontaneous locomotor activity; format: in vivo
Description: For the locomotor activity determination, male CD-1 (Crl.) derived mice were orally administered (1R,5S)-(+)-1-(naphthalen-2-yl)-3-azabicyclo[3.1.0]hexane as described in Example IV. Locomotor activity for mice in groups of 10 was assessed by placing mice individually into custom built chambers in a quiet isolated 22° C. room (conducted by MDS Pharma Services, Taipei, Taiwan 112, R. O. C.). At 15-minute intervals over 2 hours post-dosing, total travel distances (in cm) for individual animals were recorded using the Etho Vision Pro System (Noldus, USA).

T1 sequence (P23975 whole entry): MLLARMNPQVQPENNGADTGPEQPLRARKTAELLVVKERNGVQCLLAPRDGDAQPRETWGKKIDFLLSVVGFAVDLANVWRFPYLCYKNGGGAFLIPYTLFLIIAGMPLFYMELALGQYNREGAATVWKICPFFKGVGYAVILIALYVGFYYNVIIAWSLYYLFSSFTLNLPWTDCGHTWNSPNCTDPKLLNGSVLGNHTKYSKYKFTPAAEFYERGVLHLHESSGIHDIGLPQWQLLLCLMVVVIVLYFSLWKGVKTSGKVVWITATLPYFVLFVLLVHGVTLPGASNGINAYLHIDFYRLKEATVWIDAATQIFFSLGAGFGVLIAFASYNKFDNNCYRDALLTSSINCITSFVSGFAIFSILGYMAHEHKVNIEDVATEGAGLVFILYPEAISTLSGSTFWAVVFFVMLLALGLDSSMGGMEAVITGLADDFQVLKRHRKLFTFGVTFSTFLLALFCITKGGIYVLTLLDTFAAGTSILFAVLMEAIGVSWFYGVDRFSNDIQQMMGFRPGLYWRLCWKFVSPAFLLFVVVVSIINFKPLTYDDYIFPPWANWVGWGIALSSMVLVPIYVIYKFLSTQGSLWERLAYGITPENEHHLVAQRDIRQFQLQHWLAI

c1ccc2cc([C@]34CNC[C@H]3C4)ccc2c1 [(1R,5S)-(+)-1-(naphthalen-2-yl)-3-azabicyclo[3.1.0]hexane]
IC50 [1]: 6 nM
time by which extracellular 5-HT was markedly increased [2]: ≤ 40 min
peak increase of extracellular NE ([2]; 10 mg/kg i.p.): over 325 % of baseline
peak increase of extracellular NE ([2]; 20 mg/kg i.p.): > 375 % of baseline
duration of increase of extracellular DA ([2]; 10 and 20 mg/kg i.p.): over 3 hours
duration of increase of extracellular NE ([2]; 10 and 20 mg/kg i.p.): over 3 hours
peak increase of extracellular 5-HT ([2]; 10 and 20 mg/kg i.p.): 300 % of baseline
time after administration at which extracellular NE was markedly increased ([2]; 10 and 20 mg/kg i.p.): 40 min
time by which extracellular DA was increased ([2]; 10 and 20 mg/kg i.p.): ≤ 20 min
duration of significant increase of extracellular 5-HT ([2]; both doses 10 and 20 mg/kg i.p.): over 3 hours
peak increase of extracellular DA ([2]; the two doses 10 and 20 mg/kg i.p.): 240-300 % of baseline
locomotor activity (FIG. 5) ([3]; 20, 40 mg/kg p.o., 15 minute epochs, p<0.05 versus vehicle): decreased locomotor activity at several time points
spontaneous locomotor activity ([3]; oral, distance traveled at 15-minute intervals over 2 hours): did not significantly increase; also recorded: significantly decrease locomotor activity at several time points
